These results are taken from patent US9675701B2, “Coloured disinfectant preparation based on bispyridiniumalkane” (L'AIR LIQUIDE, SOCIETE ANONYME POUR L'ETUDE ET …, priority 2014, dated 2017).

The subject of assay [1] is S. aureus ATCC 6538. In words: Method A: remanence effect of the dried preparation on tiles, germ count determination. The format is cell-based. The conditions noted are these: preliminary experiments with a new type of method. The method, then: No in-vitro method was hitherto known for being able to rapidly examine (i.e. screen) the potential impairment of the remanent effect of antiseptic active ingredients due to added dyes, and specifically in particular in the presence of large amounts of solvents, such as alcohols. […] 0.2 ml of the test preparation was spread to the edge on a tile measuring 5×5 cm and left to dry optically. Here, solvents evaporate and the antiseptic active ingredient (octenidine was tested) remains on the tile. Then, 0.1 ml of bacteria suspension (test germ S. aureus ATCC 6538, starting germ count of the solution 10^6 CFU/ml, on the tile then 10^5 CFU/ml) is applied to an area of 3×3 cm on the tile. After the corresponding contact time, the tile is transferred to a container filled with glass beads (diameter 3-4 mm) and 10 ml of neutralization solution (TLSH) and shaken for 2 minutes on a horizontal shaker at 200 rpm. Finally, a germ count determination is performed by means of dilution series. The dilution stages 10^0, 10^−1, 10^−2 and 10^−3 are plated out. The agar plates are incubated for 24-48 hours at 36±1° C. The CFU/ml resulting therefrom is used to calculate the logarithmic reduction factor (RF) for the preparations and the water control. A high […] reduction factor means good bactericidal efficacy of the preparation. […]

Assay [2] in a line: Efficacy of octenidine in Octeniderm with added dye. The source says:
However, blue dyes are not accepted by the market on account of the poor visibility of the vessels under the skin.

As for `O=C([O-])c1ccccc1-c1c2ccc(=O)cc-2oc2cc([O-])ccc12.[Na+].[Na+]` [uranine], the “remanence effect of octenidine in preparations which comprise the dye” value in assay [1] was “inhibited”.

As to `CCN(CC)c1ccc(C(=C2C=CC(=[N+](CC)CC)C=C2)c2cc(O)c(S(=O)(=O)[O-])cc2S(=O)(=O)[O-])cc1.CCN(CC)c1ccc(C(=C2C=CC(=[N+](CC)CC)C=C2)c2cc(O)c(S(=O)(=O)[O-])cc2S(=O)(=O)[O-])cc1.[Ca+2]` [Patent Blue V], the “restriction of the efficacy of the octenidine in Octeniderm by the dye” value in assay [2] is reported as “no restriction of the efficacy”.
